# Measurements reported in ChEMBL document CHEMBL3352762 (J Med Chem, 2014).
# Peptide text beside a SMILES is read from it.
# How the values were obtained:
# Urotensin-2 receptor [1] = biological target: T1, Urotensin-2 receptor (Homo sapiens, UniProt Q9UKP6); test: Displacement of [125I]urotensin-2 from human recombinant UT receptor expressed in CHO-K1 cells by scintillation counting method; type: cell-based
# T1 sequence (Q9UKP6 whole entry): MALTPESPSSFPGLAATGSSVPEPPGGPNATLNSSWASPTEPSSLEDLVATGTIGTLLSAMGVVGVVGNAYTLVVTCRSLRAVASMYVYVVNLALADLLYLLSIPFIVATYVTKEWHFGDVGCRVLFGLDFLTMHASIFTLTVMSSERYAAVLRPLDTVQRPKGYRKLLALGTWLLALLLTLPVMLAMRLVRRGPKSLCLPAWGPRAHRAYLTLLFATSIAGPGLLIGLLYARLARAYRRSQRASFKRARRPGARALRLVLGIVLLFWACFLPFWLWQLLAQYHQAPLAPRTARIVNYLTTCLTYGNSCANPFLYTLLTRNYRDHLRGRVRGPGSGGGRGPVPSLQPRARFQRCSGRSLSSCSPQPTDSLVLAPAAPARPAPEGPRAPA
# Urotensin-2 receptor [2] = biological target: T2, Urotensin-2 receptor (Rattus norvegicus, UniProt P49684); test: Agonist activity at UT receptor in rat aorta assessed as contraction; type: tissue-based
# T2 sequence (P49684 whole entry): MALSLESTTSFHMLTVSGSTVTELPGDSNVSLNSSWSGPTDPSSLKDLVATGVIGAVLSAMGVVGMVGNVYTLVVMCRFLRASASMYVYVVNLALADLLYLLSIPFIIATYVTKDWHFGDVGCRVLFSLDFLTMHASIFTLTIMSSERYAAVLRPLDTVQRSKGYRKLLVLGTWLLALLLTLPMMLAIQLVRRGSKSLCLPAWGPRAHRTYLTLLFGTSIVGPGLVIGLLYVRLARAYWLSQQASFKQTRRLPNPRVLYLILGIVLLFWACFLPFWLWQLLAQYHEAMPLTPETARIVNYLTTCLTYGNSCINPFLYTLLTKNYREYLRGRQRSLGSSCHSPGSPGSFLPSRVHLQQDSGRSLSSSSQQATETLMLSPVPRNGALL
# [3] = biological target: T3, Urotensin-2 receptor (Rattus norvegicus) (UniProt P49684); test: Agonist activity at UT receptor in rat aorta assessed as contraction relative to urotensin-2; type: tissue-based
# T3 sequence (whole entry): T2 sequence (P49684 whole entry)
SMILES,Ki (Urotensin-2 receptor [1]) [nM],EC50 (Urotensin-2 receptor [2]) [nM],Emax [3] [%]
"CC(C)[C@H](NC(=O)[C@@H]1CSSC(C)(C)[C@H](NC(=O)[C@@H](N)CC(=O)O)C(=O)N[C@@H](Cc2ccccc2)C(=O)N[C@@H](Cc2c[nH]c3ccccc23)C(=O)N[C@@H](CCCCN)C(=O)N[C@@H](Cc2ccc3ccccc3c2)C(=O)N1)C(=O)O (HELM PEPTIDE1{D.[Pen].F.W.K.[O=C([C@H](Cc1ccc2ccccc2c1)N[*:1])[*:2]].C.V}$PEPTIDE1,PEPTIDE1,2:R3-7:R3$$$V2.0)",2,0.724,85
"CC(C)[C@H](NC(=O)[C@@H]1CSSC(C)(C)[C@H](NC(=O)[C@@H](N)CC(=O)O)C(=O)N[C@@H](Cc2ccccc2)C(=O)N[C@@H](Cc2c[nH]c3ccccc23)C(=O)N[C@@H](CCCCN)C(=O)N[C@@H](Cc2cccc3ccccc23)C(=O)N1)C(=O)O (HELM PEPTIDE1{D.[Pen].F.W.K.[O=C([C@H](Cc1cccc2ccccc12)N[*:1])[*:2]].C.V}$PEPTIDE1,PEPTIDE1,2:R3-7:R3$$$V2.0)",0.398,5.01,86
CC(C)[C@H](NC(=O)[C@@H]1CSSC(C)(C)[C@H](NC(=O)[C@@H](N)CC(=O)O)C(=O)N[C@@H](Cc2ccccc2)C(=O)N[C@H](Cc2c[nH]c3ccccc23)C(=O)N[C@@H](CCCN)C(=O)N[C@@H](Cc2cccc3ccccc23)C(=O)N1)C(=O)O,6.46,18.2,37
CC(C)[C@H](NC(=O)[C@@H]1CSSC(C)(C)[C@H](NC(=O)[C@@H](N)CC(=O)O)C(=O)N[C@@H](Cc2ccccc2)C(=O)N[C@H](Cc2c[nH]c3ccccc23)C(=O)N[C@@H](CCCN)C(=O)N[C@@H](Cc2ccc(Cl)cc2)C(=O)N1)C(=O)O,1.05,2.69,13
CC(C)[C@H](NC(=O)[C@@H]1CSSC(C)(C)[C@H](NC(=O)[C@@H](N)CC(=O)O)C(=O)N[C@@H](Cc2ccccc2)C(=O)N[C@H](Cc2c[nH]c3ccccc23)C(=O)N[C@@H](CCCN)C(=O)N[C@@H](Cc2ccc3ccccc3c2)C(=O)N1)C(=O)O,0.724,3.8,13
"CC(C)[C@H](NC(=O)[C@@H]1CSSC(C)(C)[C@H](NC(=O)[C@@H](N)CC(=O)O)C(=O)N[C@@H](Cc2ccccc2)C(=O)N[C@@H](Cc2c[nH]c3ccccc23)C(=O)N[C@@H](CCCCN)C(=O)N[C@@H](Cc2ccc([N+](=O)[O-])cc2)C(=O)N1)C(=O)O (HELM PEPTIDE1{D.[Pen].F.W.K.[O=C([C@H](Cc1ccc([N+](=O)[O-])cc1)N[*:1])[*:2]].C.V}$PEPTIDE1,PEPTIDE1,2:R3-7:R3$$$V2.0)",1.78,0.631,95
CC(C)[C@H](NC(=O)[C@@H]1CSSC(C)(C)[C@H](NC(=O)[C@@H](N)CC(=O)O)C(=O)N[C@@H](Cc2ccccc2)C(=O)N[C@H](Cc2c[nH]c3ccccc23)C(=O)N[C@@H](CCCN)C(=O)N[C@@H](Cc2ccc(Cl)c(Cl)c2)C(=O)N1)C(=O)O,2.24,12.9,26
CC(C)[C@H](NC(=O)[C@@H]1CSSC(C)(C)[C@H](NC(=O)[C@@H](N)CC(=O)O)C(=O)N[C@@H](Cc2ccccc2)C(=O)N[C@H](Cc2c[nH]c3ccccc23)C(=O)N[C@@H](CCCN)C(=O)N[C@@H](Cc2nc3ccccc3s2)C(=O)N1)C(=O)O,12.9,33.9,57
CC(C)[C@H](NC(=O)[C@@H]1CSSC[C@H](NC(=O)[C@H](CC(=O)O)NC(=O)[C@@H]2CCCN2C(=O)[C@@H](NC(=O)[C@@H](N)CCC(=O)O)[C@@H](C)O)C(=O)N[C@@H](Cc2ccccc2)C(=O)N[C@@H](Cc2c[nH]c3ccccc23)C(=O)N[C@@H](CCCCN)C(=O)N[C@@H](Cc2ccc(O)cc2)C(=O)N1)C(=O)O [UROTENSIN-II],–,3.16,100
